What all share (experiment): NCI-60 cell line screen, 48 h
Experiment [1] concerns UO-31 renal.
The subject of experiment [2] is MALME-3M melanoma.
Experiment [3] deals with ACHN renal.
Experiment [4] concerns K-562 leukemia.
For experiment [5], the system named is A498 renal.
Experiment [6] relates to SK-MEL-2 melanoma.
Experiment [7] concerns M14 melanoma.
Experiment [8] concerns NCI/ADR-RES ovarian.
For experiment [9], the system named is SW-620 colon.
The test system of experiment [10] is HOP-92 NSCLC.

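Tested at 5 concentrations; 48 h exposure; 96-well plates; endpoints linearly interpolated, else capped at highest concentration. At the TGI there is no net growth.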

Drawing on PubChem BioAssay (NCI), this text covers TGI for 15 molecules.

As to `COc1cccc(N2C(=O)C3c4[nH]c5ccc(C)cc5c4C4CCC(C(C)(C)C)CC4C3C2=O)c1` (stereo not given), the TGI in [1] was above 10 µM; in experiment [2], above 10 µM; in [3], above 10 µM; in experiment [4], 7.67 µM; in experiment [5], above 10 µM; in experiment [6] it was above 10 µM. For the same molecule, the results for the TGI in [7], in [8] and in experiment [9] were above 10 µM, 9.27 µM and above 10 µM, respectively.

In the case of `Cc1nc(-c2ccc(N=Cc3ccc(N(CCOS(C)(=O)=O)CCOS(C)(=O)=O)cc3C)cc2)cs1`, the TGI was 62 µM in experiment [1]; above 100 µM in [2]; 19.2 µM in experiment [3]; above 100 µM in experiment [4]; 11.4 µM in [5]; above 100 µM in [6]. Moreover, the TGI in [7], in experiment [8] and in experiment [9] was above 100 µM each time.

For the molecule `CC(C)=C/C=C1/CS(=O)(=O)C=C1C`, the TGI in experiment [1], in [2], in [3], in experiment [4], in [5] and in experiment [6] was above 100 µM each time. The TGI in experiment [7], in experiment [8] and in experiment [9] was above 100 µM each time.

As to `Nc1ccc(CCN2CCN(CCCc3ccccc3)CC2)cc1`, the TGI in experiment [1], in experiment [2], in experiment [3], in [4], in [5] and in experiment [6] was above 100 µM each time. Moreover, the TGI in experiment [7], in experiment [8] and in experiment [9] was above 100 µM throughout.

On to `CCCc1ccc(NCc2cc(OC)c(OC)c(OC)c2)cc1`, for which the TGI is 56.6 µM in experiment [1]; 50.4 µM in experiment [2]; above 100 µM in [3]; 75.8 µM in [10]; 51.6 µM in [4]; 98.6 µM in [5]. The molecule further showed a TGI in experiment [6] of 44.2 µM.

For the molecule `COc1ccc2c(c1)CCN1CCc3cc(OC)c(OC)cc3CC21` (stereo not given), the TGI in [1], in [3], in experiment [10], in experiment [4], in [5] and in experiment [7] was above 100 µM each time. For the same molecule, the TGI in experiment [8] and in [9] was above 100 µM throughout.

With `CC(C)[C@@H]1ON1C(C)c1ccccc1` (stereo not given in full), the TGI in experiment [1], in [2], in experiment [3], in experiment [10], in experiment [4] and in experiment [5] was above 100 µM each time. Besides, the TGI in [7], in [8] and in [9] was above 100 µM in each case.

Take `COc1ccc(-n2cnc3c(NC(CCSC)C(=O)O)ncnc32)cc1` (stereo not given): the TGI in experiment [1], in [3], in [10], in experiment [4], in experiment [5] and in experiment [6] was above 100 µM throughout. The TGI in experiment [7], in experiment [8] and in [9] was above 100 µM throughout.

As for `Cc1cc(NCCCCCCCNc2cc(C)nc3cc([N+](=O)[O-])ccc23)c2ccc([N+](=O)[O-])cc2n1`, the TGI was 29 µM in experiment [1]; above 71.1 µM in experiment [2]; 28.5 µM in experiment [3]; 47 µM in [10]; 30.4 µM in experiment [5]; 98.3 µM in experiment [6]. The values for the TGI in experiment [7] and in experiment [9] were 41.2 µM and 4.61 µM, respectively.

In the case of `CC1OC(OC2C(OC(=O)[C@@H]3CC(C)(C)C[C@H]4C5=CC[C@@H]6[C@@]7(C)C[C@H](O)[C@H](OC8OC(CO)C(O)C(O)C8O)[C@@](C)(CO)[C@@H]7[C@H](O)C[C@@]6(C)[C@]5(C)CC[C@@]34C)OCC(O)C2O)C(O)C(O)C1O` (stereo not given in full), the TGI in experiment [1], in [2], in experiment [3], in experiment [10], in [4] and in experiment [6] was above 7.5 µM each time. The TGI in [7], in experiment [8] and in experiment [9] was above 7.5 µM each time.

`O=C1C[C@@H](c2ccccc2)O[C@@H](c2ccccc2)C1`: the TGI in experiment [1], in experiment [2], in experiment [10], in [4], in experiment [6] and in experiment [7] was above 100 µM each time. In addition, the TGI in experiment [8] and in [9] was above 100 µM throughout.

For the molecule `COc1cc([C@@H]2c3cc(O)c(OC)cc3C=C(C(N)=O)[C@H]2C(N)=O)ccc1O`, the TGI in experiment [1], in [2], in experiment [3], in experiment [10], in experiment [4] and in experiment [5] was above 100 µM in each case. The TGI in experiment [7], in [8] and in [9] was above 100 µM throughout.

As for `Nc1ccc(C(=O)NN2C(=O)C(Cl)C2c2ccccc2)cc1` (stereo not given), the TGI in experiment [1], in [2], in experiment [3], in experiment [10], in experiment [4] and in experiment [5] was above 100 µM throughout. Moreover, the TGI in experiment [6], in experiment [7] and in experiment [9] was above 100 µM each time.

With `Cc1n[nH]c(=O)n1/N=C/c1ccc([N+](=O)[O-])o1`, the TGI in experiment [1] is 30.2 µM; in experiment [2], 15.5 µM; in experiment [3], 28.7 µM; in experiment [4], above 100 µM; in [5], 47.6 µM; in experiment [6], above 53.8 µM. Besides, the TGI was determined as 26.6 µM in [7], 70.3 µM in [8] and 37.8 µM in experiment [9].

Take `CCOC(=O)c1ccc(C(=O)C(C(C)=O)C(=O)OC(C)(C)C)[nH]1` (stereo not given): the TGI in [1], in experiment [2], in experiment [3], in experiment [4], in [5] and in experiment [6] was above 100 µM in each case. Also, the TGI in experiment [7], in [8] and in experiment [9] was above 100 µM in each case.
